In patent US20220160712A1, “METHODS OF TREATING RHEUMATOID ARTHRITIS AND FOR PREDICTING THE RESPONSE TO METHOTREXATE” (CHAN ZUCKERBERG BIOHUB, INC., priority 2020, published 2022):

Columns and labels:
B. vulgatus = experiment: In vitro bacterial rescue study with folic acid; type: cell-based, Bacteroides vulgatus; conditions: folic acid 0-250 μg/ml; MTX 0-450 μg/ml
Method: (§1) As described in the ur in vitro bacterial growth studies, 48-hour overnight cultures were grown in an anaerobic chamber in liquid BHI+ for the following isolates: Bacteroides vulgatus, Bacteroides thetaiotaomicron, Clostridium innocuum and Clostridium symbiosum. Each subculture was diluted down to an OD600 of 0.08-0.1, which was then further diluted 100-fold, and then used to inoculate a 96-well microtiter plate with 2-fold serial dilutions of MTX (Sigma, Cat #M9929) concentrations ranging from 0-450 μg/ml (0-990 μM) along the columns (1-10) and 2-fold serial dilutions of folic acid (Fischer Scientific, BP25195) ranging from 0-250 μg/ml (0-566 μM) along the rows (A-H). Each plate included media and growth controls. […]
(§2) Growth parameters (carrying capacity, time to mid-exponential and growth rate) were calculated in R using GrowthCurveR (Sprouffske, K., and Wagner, A. (2016), BMC Bioinformatics 17, 1726) (v0.2.1). […] For rescue studies, as above, growth parameters (carrying capacity, time to mid-exponential, growth rate, and area under the curve) were calculated in R using GrowthCurveR (Sprouffske and Wagner, 2016) (v0.2.1). Four isolates were evaluated with varying sensitivity to MTX (B. thetaiotaomicron, B. vulgatus, C. innocuum and C. symbiosum). […] Growth curves at 9 concentrations of MTX tested against 7 concentrations of folic acid were measured. […]

C. innocuum = experiment: In vitro bacterial rescue study with folic acid; type: cell-based, Clostridium innocuum; conditions: folic acid 0-250 μg/ml; MTX 0-450 μg/ml
Method: as §1, §2

B. theta = experiment: In vitro bacterial rescue study with folic acid; type: cell-based, Bacteroides thetaiotaomicron; conditions: in the presence and absence of MTX; folic acid 0-250 μg/ml
Method: as §1, §2

human gut microbiota = experiment: MTX treatment of gnotobiotic mice colonized with human stool; 16S-seq and qPCR of gut microbiota; type: in vivo; conditions: Donor 3 mice, oral MTX 50 mg/kg with or without equimolar folic acid
C. symbiosum = experiment: In vitro bacterial rescue study with folic acid; type: cell-based, Clostridium symbiosum; conditions: MTX resistant isolate; high doses of MTX
Method: as §1, §2

[1] = system: B. vulgatus, B. thetaiotaomicron, C. innocuum, and C. symbiosum; experiment: In vitro bacterial rescue study with leucovorin; type: cell-based

Compound	dose-dependent increases in growth with folic acid (B. vulgatus)	dose-dependent increases in growth with folic acid (C. innocuum)	growth in response to folic acid (B. theta)	rescue of the gut microbiota from MTX by co-administered folic acid (α- or β-diversity between groups) (human gut microbiota)	rescue of the gut microbiota from MTX by co-administered folic acid (α- or β-diversity between groups) (human gut microbiota; listed as Folic acid)	effect of folic acid on MTX sensitivity (C. symbiosum)	effect of leucovorin on growth of the tested isolates ([1]; leucovorin 0-125 μg/ml (FIG. 4D and 4E))	dose-dependent effects of leucovorin on growth in the presence of MTX ([1]; leucovorin 0-125 μg/ml, linear regression (FIG. 4F))
Nc1nc2ncc(CNc3ccc(C(=O)N[C@@H](CCC(=O)O)C(=O)O)cc3)nc2c(=O)[nH]1 [folic acid]	only evident in the presence of MTX	only evident in the presence of MTX	improved in a dose-dependent manner	Neither route nor rescue resulted in a significant difference	did not markedly rescue the gut microbiota	sensitized to MTX	–	–
Nc1nc2c(c(=O)[nH]1)N(C=O)C(CNc1ccc(C(=O)N[C@@H](CCC(=O)O)C(=O)O)cc1)CN2 (some centres unmarked) [leucovorin]	–	–	–	–	–	–	improved growth of 3 of the 4 tested isolates	did not have any significant dose-dependent effects
